In the supplement of paper PMC10702517:
± gives the standard deviation.

How the values were obtained:
[1] = chemical recovery from spiked human plasma; higher = better extraction; conditions: pooled human plasma
[2] = chemical recovery by SPE of plasma after PDMS sampling; higher = better extraction; conditions: pooled human plasma, extraction method: HLB SPE of plasma after PES
[3] = chemical recovery into PDMS from spiked human plasma; higher = better extraction; conditions: pooled human plasma, extraction method: PES with PDMS
[4] = extraction method: PES+SPE (3 d PDMS equilibration then HLB SPE)
[5] = extraction method: SPE only (HLB 96-well)
[6] = extraction method: SPE only (HLB 96-well), PES comparison experiment
[7] = extraction method: solvent precipitation (ACN + hexane)
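Throughout, for chemical recovery by SPE of plasma after PDMS sampling: over 400 spiked chemicals quantified by LC-HRMS or GC-HRMS via internal standard calibration, recovery relative to spike mix added to unspiked plasma extract to correct matrix effects.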

Row | chemical recovery [1, 4] | chemical recovery [1, 5] | chemical recovery [1, 6] | chemical recovery [1, 7] | chemical recovery by SPE of plasma ([2]; equilibration time (d): 1) | chemical recovery by SPE of plasma ([2]; equilibration time (d): 3) | chemical recovery by SPE of plasma ([2]; equilibration time (d): 6) | chemical recovery into PDMS ([3]; equilibration time (d): 3) | chemical recovery into PDMS ([3]; equilibration time (d): 6) | chemical recovery into PDMS ([3]; equilibration time (d): 1) | SMILES
1 | 32.9 ± 5.6% | 39.3 ± 3.4% |  | 64.9 ± 4.3% | 14.6 ± 2.6% | 18.4 ± 1.5% | 14.4 ± 2.3% | 23.3 ± 1.7% | 26.3 ± 2.2% | 23.5 ± 1.9% | CCOC(=O)c1ccc(N)cc1 [Benzocain]
2 | 41.3 ± 8.9% | 28.9 ± 1.7% | 33.1 ± 5.5% | 65 ± 3.6% | 1.5 ± 0.48% | 1.88 ± 0.31% | 1.41 ± 0.17% | 38.2 ± 2.1% | 38.6 ± 4.5% | 35.5 ± 1.5% | COc1ccc(C(=O)c2ccccc2)c(O)c1 [Benzophenone-3]
3 |  |  | 41.7 ± 7.8% |  |  | 26.8 ± 4.2% | 19.1 ± 4.2% | 18.8 ± 1.3% | 20.1 ± 1.2% | 12.9 ± 1.3% | CCCCC(=O)O[C@]1(C(=O)CO)[C@@H](C)C[C@H]2[C@@H]3CCC4=CC(=O)C=C[C@]4(C)[C@@]3(F)[C@@H](O)C[C@@]21C [Betamethasone-17-valerate]
4 | 47.8 ± 3.6% | 45.5 ± 3.2% | 52.7 ± 4.8% | 74.9 ± 2.3% | 52.7 ± 6.2% | 56.9 ± 2.6% | 53.6 ± 2.6% | 0.00082 ± 0.0014% |  | 0.000935 ± 0.0016% | CC(C)(Oc1ccc(CCNC(=O)c2ccc(Cl)cc2)cc1)C(=O)O [Bezafibrate]
5 |  |  | 46.6 ± 10% |  | 0.932 ± 0.2% | 0.479 ± 0.14% | 0.0513 ± 0.051% | 38.5 ± 4.5% | 35.7 ± 4.3% | 38.6 ± 3.1% | c1ccc(-c2ccc(C(c3ccccc3)n3ccnc3)cc2)cc1 (stereo unspecified) [Bifonazol]
6 | 26.7 ± 3.1% | 42.2 ± 4% | 47.4 ± 6.3% | 70.7 ± 1.7% | 32.2 ± 3.3% | 34.4 ± 3.7% | 31.1 ± 2.7% |  |  | 0.0185 ± 0.032% | CC(C)NCC(O)COc1ccc(COCCOC(C)C)cc1 (stereo unspecified) [Bisoprolol]
7 |  |  | 49.7 ± 11% | 75.4 ± 4.9% | 40.6 ± 4.4% | 48.7 ± 5.1% | 42.2 ± 6.5% | 0.517 ± 0.46% | 0.935 ± 0.25% |  | COc1ccccc1Oc1c(NS(=O)(=O)c2ccc(C(C)(C)C)cc2)nc(-c2ncccn2)nc1OCCO [Bosentan]
8 |  |  | 50.5 ± 7% |  | 35.3 ± 6.4% |  | 25 ± 2.6% |  | 22.6 ± 1.5% | 4.21 ± 7.3% | CCCC1O[C@@H]2C[C@H]3[C@@H]4CCC5=CC(=O)C=C[C@]5(C)[C@H]4[C@@H](O)C[C@]3(C)[C@]2(C(=O)CO)O1 (stereo partly specified) [Budesonide]
9 | 41.3 ± 6.7% | 42 ± 8% | 36.9 ± 3.9% | 58.8 ± 12% | 48 ± 8.7% | 50.1 ± 3% | 47.8 ± 4.2% |  | 0.00245 ± 0.0094% |  | CCOc1nc2cccc(C(=O)O)c2n1Cc1ccc(-c2ccccc2-c2nnn[nH]2)cc1 [Candesartan]
10 | 61.4 ± 6.2% | 48.5 ± 5.5% | 52.6 ± 6.1% | 72.3 ± 2.5% | 25.4 ± 2.9% | 21.1 ± 2.3% | 13.6 ± 1.4% | 28.4 ± 2.1% | 30.7 ± 1.8% | 22.2 ± 1.2% | NC(=O)N1c2ccccc2C=Cc2ccccc21 [Carbamazepine]
11 | 50.4 ± 4.4% | 47.2 ± 3.9% | 53.1 ± 6.2% | 69.9 ± 2.7% | 49.6 ± 7.6% | 45.6 ± 4.6% | 37.2 ± 8% | 14.1 ± 3.2% | 16.5 ± 2.4% | 8.92 ± 0.88% | CCNC(=O)[C@@H](C)OC(=O)Nc1ccccc1 [Carbetamide]
12 |  | 33.2 ± 6.9% | 47.6 ± 5% | 42.7 ± 2.1% | 45.7 ± 5.5% | 39.7 ± 1.8% | 32.4 ± 1.7% | 6.98 ± 2.7% | 8.5 ± 3.5% | 1.77 ± 0.12% | Cc1ccc(-c2cc(C(F)(F)F)nn2-c2ccc(S(N)(=O)=O)cc2)cc1 [Celecoxib]
13 |  | 36.4 ± 1.9% | 49.8 ± 7.3% |  | 11 ± 2.2% | 7.37 ± 0.66% | 4.53 ± 0.44% | 43.6 ± 2.7% | 42.8 ± 0.94% | 37.3 ± 1.7% | CN(C)C(=O)Nc1ccc(Oc2ccc(Cl)cc2)cc1 [Chloroxuron]
14 |  |  | 46.2 ± 16% |  | 2.83 ± 1.3% | 0.638 ± 1.1% | 0.232 ± 0.4% | 20 ± 2.6% | 21.7 ± 2.5% | 22 ± 5% | Cc1cc(C2CCCCC2)n(O)c(=O)c1 [Ciclopirox]
15 | 66.5 ± 6.8% | 37.7 ± 2.8% | 46.8 ± 4.8% | 75.1 ± 3.8% | 1.65 ± 0.14% | 1.11 ± 0.35% | 0.487 ± 0.043% | 40 ± 1% | 39.7 ± 1.4% | 41.2 ± 2.2% | CC(C)(C)C(=O)C(Oc1ccc(Cl)cc1)n1ccnc1 (stereo unspecified) [Climbazole]
16 |  |  | 44.8 ± 8.7% |  | 5.08 ± 8.8% | 7.02 ± 6.3% |  | 36.9 ± 2.1% | 37.2 ± 3.9% | 28.2 ± 4.4% | CCC(=O)O[C@]1(C(=O)CCl)[C@@H](C)C[C@H]2[C@@H]3CCC4=CC(=O)C=C[C@]4(C)[C@@]3(F)[C@@H](O)C[C@@]21C [Clobetasol propionate]

Row | SMILES | chemical recovery [1, 4] | chemical recovery [1, 5] | chemical recovery [1, 6] | chemical recovery [1, 7] | chemical recovery by SPE of plasma ([2]; equilibration time (d): 1) | chemical recovery by SPE of plasma ([2]; equilibration time (d): 3) | chemical recovery by SPE of plasma ([2]; equilibration time (d): 6) | chemical recovery into PDMS ([3]; equilibration time (d): 3) | chemical recovery into PDMS ([3]; equilibration time (d): 6) | chemical recovery into PDMS ([3]; equilibration time (d): 1)
17 | c1ccc2c(c1)Cc1cc3ccccc3cc1-2 [Benzo(b)fluorene] | 57.9 ± 6.2% | 1.4 ± 0.48% | 17.5 ± 3.4% | 69.1 ± 5.1% | 1.71 ± 1.6% | 2.82 ± 0.45% | 2.41 ± 0.48% | 107 ± 3.9% | 110 ± 13% | 
18 | O=C(Nc1ccccc1-c1ccc(Cl)cc1)c1cccnc1Cl [Boscalid] | 63.9 ± 10% | 59.7 ± 2.4% | 48.2 ± 7.4% | 81.6 ± 1.8% | 4.82 ± 0.75% | 5.2 ± 0.48% | 3.13 ± 0.17% | 45.5 ± 2.2% | 44.7 ± 0.64% | 41.6 ± 1.9%
19 | N#Cc1cc(Br)c(O)c(Br)c1 [Bromoxynil] | 51 ± 4.9% | 43.9 ± 2.5% | 59.5 ± 6.2% | 68.2 ± 6.9% | 58.5 ± 9.5% | 62.9 ± 3.1% | 58.6 ± 2.6% | 0.00783 ± 0.014% |  | 
20 | CCCCc1c(C)nc(NCC)nc1OS(=O)(=O)N(C)C [Bupirimate] |  |  | 48.9 ± 8.9% |  |  | 0.147 ± 0.26% |  | 43.9 ± 4.2% | 41.4 ± 2.6% | 40.3 ± 1.4%
21 | COC(=O)Nc1nc2ccccc2[nH]1 [Carbendazim] | 55.8 ± 5.5% | 58.8 ± 4.2% | 51.3 ± 6.5% | 76.8 ± 3.4% | 31.6 ± 3.2% | 24.5 ± 2.5% | 10.6 ± 9.6% | 25.7 ± 2.7% | 27.6 ± 2.8% | 16.9 ± 1.1%
22 | CCOP(=O)(OCC)OC(=CCl)c1ccc(Cl)cc1Cl [Chlorfenvinphos] |  |  | 49.5 ± 8.3% |  | 0.151 ± 0.26% |  |  | 44.3 ± 3.6% | 44.1 ± 0.92% | 43.3 ± 1.2%
23 | Nc1cnn(-c2ccccc2)c(=O)c1Cl [Chloridazon] | 44.6 ± 2.8% | 37.3 ± 3% | 54.9 ± 6.3% | 73 ± 2.7% | 53.7 ± 8.1% | 57.1 ± 3.2% | 51.8 ± 4.5% | 7.42 ± 1.7% | 8.14 ± 1.6% | 4.58 ± 0.31%
24 | Oc1ccc(Cl)cc1Cc1ccccc1 [Chlorophene] | 41.5 ± 3.1% | 36.9 ± 4.1% | 48.5 ± 7.9% | 76.9 ± 7.2% | 36.9 ± 6.1% | 29.2 ± 5.9% | 28.6 ± 5.6% | 15.4 ± 0.93% | 15 ± 0.42% | 13.4 ± 0.41%
25 | Cc1ccc(NC(=O)N(C)C)cc1Cl [Chlorotoluron] | 61.6 ± 12% | 46 ± 3.5% | 50.6 ± 6.2% | 74.4 ± 2.2% | 10.3 ± 0.88% | 9.6 ± 1.2% | 5.83 ± 0.28% | 34.9 ± 1.4% | 36.3 ± 0.76% | 32 ± 1.2%
